Where two headings read alike, the source gives them in different places.
What was measured:
U23674 cells = assay: Four-arm orthotropic allograft study, survival; assay type: in vivo, mouse; conditions: 50 mg/kg OSI-906, 150 mg/kg GDC-0941, oral gavage; compared to vehicle and other arms
Experimental: This engraftment was performed after damaging the right leg via cardiotoxin as previously described. Treatment commenced two days after engraftment. Dosing schedule was once daily by oral gavage up to day 5, at which time dosing was performed every other day. The endpoint for the study and survival analysis was tumor volume=1.4 cc.

[1] = test system: human patient-derived xenografts; assay: Xenograft-derived chemical screen (Supplemental Table 3); assay type: cell-based; conditions: for IC50: read-out: IC50 Value
Experimental: Three chemical screens were applied to the U23674 primary tumor cell culture. […] The target inhibition profile is a quantified description of the inhibitory properties of the compound on the numerous protein targets preset on the PPTI screen.
To screen the chemical agents, cell cultures were plated in 384 well plates at a seeding density of 2000 cells per well over graded concentrations of the numerous compounds. The chemical concentrations were between 10 nM and […] depending on the activity range of the compounds. The cells were incubated in DMEM supplemented with 1% penicillin streptomycin, and 10% fetal bovine serum for 72 hours. Chemical sensitivity was determined by an MTS cell viability assay after the 72 hour incubation period. The sensitivity responses at the different concentrations were used to determine the chemical IC50 using a hill curve fitting algorithm with variable hill slope coefficients.

DIPG neurospheres [2] = assay: cells; conditions: for viability at 10 µM: read-out: cell viability (cytocidal)
Experimental: Primary cultures of DIPG neurospheres were added to 384 well plates pre-plated with 60 known drugs in an increasing gradient of concentrations. […] To complete this drug screen, primary cultures of nestin […] 53 deficient DIPG neurospheres were added to plates with 60 known drug samples in an increasing gradient of concentrations.

DIPG neurospheres [3] = assay: Cellular viability assay (CellTiter-Glo Luminescent Cell Viability Assay); assay type: cell-based, mouse; conditions: 48 hours
Experimental: A bromodeoxyuridine (BrdU) based cell proliferation ELISA assay kit (Roche) was used for proliferation and processed according to the manufacturer's protocol. […] Viability was measured with CellTiter-Glo Luminescent Cell Viability Assay (# G7572, Promega) per manufacturer's protocol, luminescence values were obtained using Turner Biosystems Modulus Microplate luminometer (model 9300-062). All values are given as mean+/−SD of at least 3 independent experiments.

DIPG-bearing mice = assay type: in vivo
Experimental: All experiments were performed under the Institutional Animal Care and Use Committee and Institutional Review Board of Duke University approved protocol (A239-10-9 and A214-13-8). Mice were maintained under barrier conditions. Nestin tv-a (Ntv-a) p53^fl/fl mice were injected with DF1 cells expressing RCAS-PDGF-B+RCAS-Cre as described above. Three weeks post injection; […]. Mice were treated with 25 mg/kg BID for 6 doses. Loss of 25% of body weight, lethargy, head tilt, or seizure development was used as euthanasia criteria during the treatment window. Four hours after completion of the 6th dose, treated animals were euthanized and tumor tissue was extracted as described above.
Tumor samples embedded in paraffin were then sectioned on a Leica RM2235 microtome at […] thickness. Immunohistochemistry was performed using Discovery XT (Ventana Medical Systems). Sections were immunostained for cleaved caspase 3 (Asp175) (Cell Signaling #9661) and anti-phospho-histone H3 (Ser10) (Millipore 06-570) to allow for evaluation of apoptosis and proliferation, respectively.
Image analysis was completed using MetaMorph 6.1 software (Universal Imaging Corp.; Downingtown, Pa.) to quantify immunostaining on previously imaged sections for each injected animal. These images were thresholded using the HSI color representation method in the Set Color Threshold window. This method has previously been validated by Maximova et. al.. This is a multidimensional evaluation of the hue, saturation, and intensity of each individual pixel making up an image with a range from 0-255. Once color thresholds had been established that were able to define all nucleated cells and only positively labeled cells, each of the ten images per injected animal were quantified for (per 40× high powered field): total nucleated cell area, total nucleated cell count, total positive cell area, total positive cell count. […] The averages for each animal of each of these parameters were then transferred to GraphPad Prism 5 software (GraphPad Software, San Diego, Calif.) where a Mann-Whitney-U t-test was performed on each analyzed parameter to determine statistical significance.

[4] = Homo sapiens, 60 agent PPTI screen
[5] = 48 h, read-out: In Vitro Absolute IC50

CS(=O)(=O)N1CCN(Cc2cc3nc(-c4cccc5[nH]ncc45)nc(N4CCOCC4)c3s2)CC1 [GDC-0941]
survival of mice (endpoint tumor volume 1.4 cc) (U23674 cells): no better than survival of mice only treated with vehicle

COc1cc2nc(N3CCCN(C)CC3)nc(NC3CCN(Cc4ccccc4)CC3)c2cc1OC [BIX-01294]
IC50 [1, 4]: 6810 nM | IC50 (DIPG neurospheres [2]; [5]): 3950 nM | viability at 10 µM (DIPG neurospheres [2]): < 15%

CNC(=O)c1cc(Oc2ccc(NC(=O)Nc3ccc(Cl)c(C(F)(F)F)c3)cc2)ccn1 [sorafenib]
IC50 [1, 4]: 6130 nM

CNC(=O)CN1CCC(Oc2cc3c(Nc4cccc(Cl)c4F)ncnc3cc2OC)CC1 [AZD-8931]
IC50 Value ([1]; 60 agent PPTI screen): >conc tested

CCCC(=O)[O-].[Na+] [sodium butyrate]
IC50 Value ([1]; 60 agent PPTI screen): >conc tested

CC(C)[C@H]1C(=O)N[C@@H](CCCN=C(N)N)C(=O)NCC(=O)N[C@@H](CC(=O)O)C(=O)N[C@H](Cc2ccccc2)C(=O)N1C [cilengitide]
IC50 Value ([1]; 60 agent PPTI screen): >conc tested

CC(=O)N[C@@H](CS)C(=O)O [NAC, N-acetyl cysteine]
IC50 Value ([1]; 60 agent PPTI screen): >conc tested

C[C@@H](Oc1cc(-c2cnn(C3CCNCC3)c2)cnc1N)c1c(Cl)ccc(F)c1Cl [Crizontinib, crizotinib]
IC50 [1, 4]: 5140 nM | IC50 (DIPG neurospheres [2]; [5]): 6230 nM | viability at 10 µM (DIPG neurospheres [2]): < 15%

NC1(c2ccc(-c3nc4ccn5c(=O)[nH]nc5c4cc3-c3ccccc3)cc2)CCC1 [MK-2206]
IC50 [1, 4]: 5490 nM

Cn1c(=O)n(-c2ccc(C(C)(C)C#N)cc2)c2c3cc(-c4cnc5ccccc5c4)ccc3ncc21 [BEZ235]
IC50 Value ([1]; 60 agent PPTI screen): >conc tested

CC1=C(/C=C/C(C)=C/C=C/C(C)=C/C(=O)O)C(C)(C)CCC1 [tretinoin]
IC50 Value ([1]; 60 agent PPTI screen): >conc tested

CCN(CC)CCNC(=O)c1c(C)[nH]c(/C=C2\C(=O)Nc3ccc(F)cc32)c1C [Sunitinib]
IC50 (DIPG neurospheres [2]; [5]): 6920 nM | viability at 10 µM (DIPG neurospheres [2]): < 15%

CN(c1ncccc1CNc1nc(Nc2ccc3c(c2)CC(=O)N3)ncc1C(F)(F)F)S(C)(=O)=O [PF-562271]
IC50 Value ([1]; 60 agent PPTI screen): >conc tested

CC(C)(C(=O)NCC(F)(F)C(F)(F)F)C(=O)N[C@@H]1C(=O)Nc2ccccc2-c2ccccc21 [RO4929097]
IC50 Value ([1]; 60 agent PPTI screen): >conc tested

CS(=O)(=O)CCNCc1ccc(-c2ccc3ncnc(Nc4ccc(OCc5cccc(F)c5)c(Cl)c4)c3c2)o1 [lapatinib]
IC50 Value ([1]; 60 agent PPTI screen): >conc tested

CN1CC[C@H](c2c(O)cc(O)c3c(=O)cc(-c4ccccc4Cl)oc23)[C@H](O)C1 [alvocidib]
IC50 Value ([1]; 60 agent PPTI screen): >conc tested

CC(C)C[C@H](NC(=O)[C@H](CCc1ccccc1)NC(=O)CN1CCOCC1)C(=O)N[C@@H](Cc1ccccc1)C(=O)N[C@@H](CC(C)C)C(=O)[C@@]1(C)CO1 [Carfilzomib]
IC50 [1, 4]: 860 nM | IC50 (DIPG neurospheres [2]; [5]): 834 nM | viability at 10 µM (DIPG neurospheres [2]): < 15%

Cc1cc(Nc2cc(N3CCN(C)CC3)nc(Sc3ccc(NC(=O)C4CC4)cc3)n2)[nH]n1 [tozasertib]
IC50 Value ([1]; 60 agent PPTI screen): >conc tested

CCNC(=O)c1noc(-c2cc(C(C)C)c(O)cc2O)c1-c1ccc(CN2CCOCC2)cc1 [AUY922]
IC50 [1, 4]: 1030 nM

Cn1cc(C2=C(c3cn(C4CCN(Cc5ccccn5)CC4)c4ccccc34)C(=O)NC2=O)c2ccccc21 [enzastaurin]
IC50 Value ([1]; 60 agent PPTI screen): >conc tested

CC(C)C[C@H](NC(=O)[C@H](Cc1ccccc1)NC(=O)c1cnccn1)B(O)O [bortezomib]
IC50 [1, 4]: 821 nM

COc1cc2c(Oc3ccc4[nH]c(C)cc4c3F)ncnc2cc1OCCCN1CCCC1 [cediranib]
IC50 Value ([1]; 60 agent PPTI screen): >conc tested

CCOc1cc2ncc(C#N)c(Nc3ccc(F)c(Cl)c3)c2cc1NC(=O)/C=C/CN(C)C [pelitinib]
IC50 Value ([1]; 60 agent PPTI screen): >conc tested

CCOc1cc(/C=C2/C(=O)N(c3ccccc3)N=C2C)cc(Cl)c1OCC(=O)OC [SJ-172550]
IC50 Value ([1]; 60 agent PPTI screen): >conc tested

CC1=C(/C=C/C(C)=C/C=C/C(C)=C/C(=O)Nc2ccc(O)cc2)C(C)(C)CCC1 [fenretinide]
IC50 Value ([1]; 60 agent PPTI screen): >conc tested

CS(=O)(=O)c1ccc(C(=O)Nc2ccc(Cl)c(-c3ccccn3)c2)c(Cl)c1 [vismodegib]
IC50 Value ([1]; 60 agent PPTI screen): >conc tested

COc1cc(Nc2ncc3c(n2)-c2ccc(Cl)cc2C(c2c(F)cccc2OC)=NC3)ccc1C(=O)O [alisertib]
IC50 Value ([1]; 60 agent PPTI screen): >conc tested

C[C@@]1(C(=O)Nc2ccc(F)nc2)CCCN1c1nc(Nc2cc(C3CC3)n[nH]2)c2cccn2n1 [BMS-754807]
concentration giving significant reduction of viability (DIPG neurospheres [3]): ≥ 0.1 µM | apoptosis, cleaved caspase 3 positive cells (DIPG-bearing mice; 25 mg/kg BID for 6 doses, intraperitoneal, mean, p=0.0435 vs vehicle): 1.063+/−0.1925 percentage of cell per high powered filed | DIPG proliferation, phosphorylated histone-3 (serine 10) positive cells (DIPG-bearing mice; 25 mg/kg BID for 6 doses, intraperitoneal, mean, p=0.8421 vs vehicle): 9.632+/−2.827 percentage of cell per high powered filed | blood brain barrier crossing (DIPG-bearing mice; mouse, in vivo): able to cross the blood brain barrier | tolerability in mice undergoing treatment (DIPG-bearing mice; mouse, in vivo): well tolerated | IC50 ([1]; Homo sapiens): 1730 nM | IC50 (DIPG neurospheres [2]; [5]): 97.4 nM | IC50 (DIPG neurospheres [2]; Mus musculus, read-out: in vitro IC50 in the high throughput drug screen): 90 nM | viability at 10 µM (DIPG neurospheres [2]): < 15%

COc1cc2c(Nc3ccc(Br)cc3F)ncnc2cc1OCC1CCN(C)CC1 [vandetanib]
IC50 [1, 4]: 3040 nM

Nc1cccc2c1CN(C1CCC(=O)NC1=O)C2=O (stereo not drawn) [lenalidomide]
IC50 Value ([1]; 60 agent PPTI screen): >conc tested

N#Cc1ccc(COC[C@H]2O[C@@H](n3c(NCc4ccc(Cl)c(Cl)c4)nc4c(N)ncnc43)[C@H](O)[C@@H]2O)cc1 [VER-155008]
IC50 Value ([1]; 60 agent PPTI screen): >conc tested

CN(C)CC[C@H](CSc1ccccc1)Nc1ccc(S(=O)(=O)NC(=O)c2ccc(N3CCN(Cc4ccccc4-c4ccc(Cl)cc4)CC3)cc2)cc1[N+](=O)[O-] [ABT-737]
IC50 [1, 4]: 2660 nM

COC1=CC(c2cc3ccccc3[nH]2)=N/C1=C\c1[nH]c(C)cc1C [Obatoclax]
IC50 (DIPG neurospheres [2]; [5]): 159 nM | viability at 10 µM (DIPG neurospheres [2]): < 15%

C[C@]1(c2nc3c(C(N)=O)cccc3[nH]2)CCCN1 [veliparib]
IC50 Value ([1]; 60 agent PPTI screen): >conc tested

Nc1ccccc1NC(=O)c1ccc(CNC(=O)OCc2cccnc2)cc1 [entinostat]
IC50 [1, 4]: 1790 nM

NC(=O)c1ccc(-c2nc(-c3ccc4c(c3)OCO4)c(-c3ccccn3)[nH]2)cc1 [SB-431542]
IC50 Value ([1]; 60 agent PPTI screen): >conc tested

CCN(CC)CCCC(C)Nc1c2ccc(Cl)cc2nc2ccc(OC)cc12 (stereo not drawn) [quinacrine]
IC50 [1, 4]: 4920 nM

CO[C@H]1C[C@@H]2CC[C@@H](C)[C@@](O)(O2)C(=O)C(=O)N2CCCC[C@H]2C(=O)O[C@H]([C@H](C)C[C@@H]2CC[C@@H](OC(=O)C(C)(CO)CO)[C@H](OC)C2)CC(=O)[C@H](C)/C=C(\C)[C@@H](O)[C@@H](OC)C(=O)[C@H](C)C[C@H](C)/C=C/C=C/C=C/1C [temsirolimus]
IC50 Value ([1]; 60 agent PPTI screen): >conc tested

Cc1cn(-c2cc(NC(=O)c3ccc(C)c(Nc4nccc(-c5cccnc5)n4)c3)cc(C(F)(F)F)c2)cn1 [nilotinib]
IC50 Value ([1]; 60 agent PPTI screen): >conc tested

Cc1[nH]c2ccccc2c1CCNCc1ccc(/C=C/C(=O)NO)cc1 [panobinostat]
IC50 [1, 4]: 245 nM

CC(/C=C/C(=O)NO)=C\[C@@H](C)C(=O)c1ccc(N(C)C)cc1 [trichostatin A]
IC50 ([1]; 60 agent PPTI screen): 5520 nM

COc1cc(Nc2ncc(F)c(Nc3ccc4c(n3)N(COP(=O)(O)O)C(=O)C(C)(C)O4)n2)cc(OC)c1OC [fostamatinib]
IC50 [1, 4]: 5150 nM

CC(C)(C)c1cnc(CSc2cnc(NC(=O)C3CCNCC3)s2)o1 [SNS-032]
IC50 Value ([1]; 60 agent PPTI screen): >conc tested | IC50 (DIPG neurospheres [2]; [5]): 505 nM | viability at 10 µM (DIPG neurospheres [2]): < 15%

COc1nc(C)cnc1NS(=O)(=O)c1cccnc1-c1ccc(-c2nnco2)cc1 [zibotentan]
IC50 Value ([1]; 60 agent PPTI screen): >conc tested

CN(C)c1ccccc1CN1CCCN(Cc2ccccc2N(C)C)C1c1ccncc1 [GANT61]
IC50 ([1]; 60 agent PPTI screen): 7380 nM
